Laboratory results: PubChem BioAssay (NCI)
Values joined by “and” are separate entries in the source; they are usually repeats but may differ in a detail not shown here. Equal values may be shown once.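 Method: 48-hour compound exposure of cells in 96-well plates, five concentrations, linear interpolation of endpoints. GI50: concentration for 50% inhibition of growth. TGI denotes the concentration required for complete inhibition of growth.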

Experiments:
Assay in all cases: NCI-60 cell line screen, 48 h
A549 NSCLC = test system: A549 NSCLC
EKVX NSCLC = test system: EKVX NSCLC
HL-60(TB) leukemia = test system: HL-60(TB) leukemia
KM12 colon = test system: KM12 colon
M14 melanoma = test system: M14 melanoma
MALME-3M melanoma = test system: MALME-3M melanoma
NCI-H460 lung = test system: NCI-H460 lung
RPMI-8226 leukemia = test system: RPMI-8226 leukemia
SN12C renal = test system: SN12C renal
SNB-19 CNS = test system: SNB-19 CNS

| Structure (SMILES) | GI50 (A549 NSCLC) | TGI (A549 NSCLC) | GI50 (EKVX NSCLC) | TGI (EKVX NSCLC) | GI50 (HL-60(TB) leukemia) | TGI (HL-60(TB) leukemia) | GI50 (KM12 colon) | TGI (KM12 colon) | GI50 (M14 melanoma) | TGI (M14 melanoma) | GI50 (MALME-3M melanoma) | TGI (MALME-3M melanoma) | GI50 (NCI-H460 lung) | TGI (NCI-H460 lung) | GI50 (RPMI-8226 leukemia) | TGI (RPMI-8226 leukemia) | GI50 (SN12C renal) | TGI (SN12C renal) | GI50 (SNB-19 CNS) | TGI (SNB-19 CNS) |
| --- | --- | --- | --- | --- | --- | --- | --- | --- | --- | --- | --- | --- | --- | --- | --- | --- | --- | --- | --- | --- |
| CC[C@]12C=CCN3CC[C@@]4(c5ccc(OC)cc5N(C)[C@H]4[C@@](O)(C(=O)OC)[C@@H]1OC(=O)CCC[P+](c1ccccc1)(c1ccccc1)c1ccccc1)[C@@H]32 | 1.5 µM and 1.11 µM | 36.2 µM and 11.4 µM | 1.17 µM and 2.73 µM | 10 µM and 18.2 µM | 0.203 µM and 0.195 µM | 0.76 µM and 0.518 µM | 0.274 µM and 0.527 µM | 1.06 µM and 1.8 µM | 0.762 µM and 1.05 µM | 2.93 µM and 2.85 µM | 0.338 µM and 0.493 µM | 1.37 µM and 1.78 µM | 1.38 µM and 1.31 µM | 5.82 µM and 11 µM | 0.118 µM and 0.164 µM | 1.29 µM and 0.597 µM | 0.719 µM and 0.491 µM | 5.45 µM and 6.66 µM | 0.296 µM and 0.382 µM | 6.04 µM and 1.66 µM |
| CCCCCCCCCC/C=C/CC(=O)SCCNC(=O)CCNC(=O)[C@@H](O)C(C)(C)COP(=O)(O)OP(=O)(O)OCC1OC(n2cnc3c(N)ncnc32)C(O)C1OP(=O)(O)O (stereo partly drawn) | – | > 10 µM | – | > 10 µM | – | > 10 µM | – | > 10 µM | – | > 10 µM | – | > 10 µM | – | > 10 µM | – | > 10 µM | – | > 10 µM | – | > 10 µM |
| C=C(C=O)C1CCC2(C(=O)O)CCC3(C)C(CCC4C5(C)CCC(O)C(C)(C)C5CCC43C)C12 (stereo not drawn) | 4.58 µM | 28.7 µM | 6.23 µM | > 61.7 µM | 4.1 µM | > 100 µM | 1.61 µM | 3.39 µM | 2.23 µM | 6.92 µM | 2.33 µM | 7.99 µM | 2.05 µM | 4.43 µM | 2.64 µM | > 100 µM | 4.09 µM | > 89.9 µM | 8.18 µM | 20.8 µM |
| CC1OC(n2cc(F)c(=O)[nH]c2=O)C=CC1O (stereo not drawn) | – | > 100 µM | – | > 100 µM | – | > 100 µM | – | > 100 µM | – | > 100 µM | – | > 100 µM | – | > 100 µM | – | > 100 µM | – | > 100 µM | – | > 100 µM |
| O=C1NC(=Nc2ccccc2)S/C1=C\c1ccc2ncccc2c1 | > 7.12 µM | > 25 µM | – | – | 1.42 µM | > 25 µM | 1.62 µM | > 25 µM | > 25 µM | > 25 µM | > 18.1 µM | > 25 µM | > 6.82 µM | > 25 µM | – | > 25 µM | > 25 µM | > 25 µM | > 22.9 µM | > 25 µM |
| COc1ccc2c(c1)CCC1C2CC[C@@]2(C)C1CC1=CC(COC(C)=O)C3C(=O)c4ccccc4C(=O)C3C12 (stereo partly drawn) | > 100 µM | > 100 µM | > 100 µM | > 100 µM | 76.3 µM | > 100 µM | > 100 µM | > 100 µM | > 100 µM | > 100 µM | > 100 µM | > 100 µM | > 100 µM | > 100 µM | 51.2 µM | > 100 µM | > 100 µM | > 100 µM | > 100 µM | > 100 µM |
| CCN1CCN(c2ccc(Nc3cc(N(C)C(=O)Nc4c(Cl)c(OC)cc(OC)c4Cl)ncn3)cc2)CC1 | 3.13 µM | 12.1 µM | – | – | 2.14 µM | 4.42 µM | 4.47 µM | 18.7 µM | 1.45 µM | 3.1 µM | 1.82 µM | 3.5 µM | 1.87 µM | 5.42 µM | 1.76 µM | 4.71 µM | 2.62 µM | 11 µM | 4.06 µM | 18.7 µM |
| Cc1c2cccnc2c(C)c2c1c1cc(CO)ccc1n2C | 2.65 µM | 11.7 µM | 1.4 µM | 9.86 µM | – | – | 2.33 µM | 17 µM | 2.49 µM | 10.4 µM | 1.93 µM | 7.82 µM | 1.23 µM | 6.12 µM | 2.09 µM | 7.3 µM | 2.08 µM | 40.3 µM | 2.67 µM | 14.6 µM |
| CCOC(=O)Oc1c(OC)cc(C(=O)NC2CCc3cc(OC)c(OC)c(OC)c3-c3ccc(SC)c(=O)cc32)cc1OC (stereo not drawn) | 0.0288 µM | > 70 µM | – | 37.9 µM | – | – | < 0.007 µM | – | 0.0166 µM | 10.7 µM | 0.0205 µM | > 70 µM | 0.016 µM | – | – | – | 0.0136 µM | 25.2 µM | 0.0235 µM | 53.6 µM |
| CC(C)(C)OC(=O)NCC(=O)OCc1ccccc1 | – | > 100 µM | – | – | – | > 100 µM | – | > 100 µM | – | > 100 µM | – | > 100 µM | – | > 100 µM | – | – | – | > 100 µM | – | > 100 µM |
| C/C1=C\CC[C@@]2(C)O[C@@H]2[C@H]2OC(=O)[C@@H](CN(C)C)[C@@H]2CC1 | 19.6 µM | 63.3 µM | 21.1 µM | 41.8 µM | 1.46 µM | 7.24 µM | 11.8 µM | 29.1 µM | 16.3 µM | 35.2 µM | – | – | 32.8 µM | > 100 µM | 2.39 µM | 23.1 µM | 12.8 µM | 32.4 µM | 27.9 µM | 63 µM |
| O=[n+]1c2c(n([O-])c3ccccc31)CCCCCCCCCC2 | – | > 100 µM | – | > 100 µM | – | > 100 µM | – | > 100 µM | – | > 100 µM | – | > 100 µM | – | – | – | > 100 µM | – | > 100 µM | – | > 100 µM |
| CC(=O)O.CC(=O)O.CC(=O)O.CC(=O)O.CC(=O)O.CC(=O)O.O.[Ti].[Ti] | > 100 µM | > 100 µM | > 100 µM | > 100 µM | > 100 µM | > 100 µM | > 100 µM | > 100 µM | > 100 µM | > 100 µM | > 100 µM | > 100 µM | – | – | > 100 µM | > 100 µM | > 100 µM | > 100 µM | 65.6 µM | > 100 µM |
| O=C1c2ccccc2C2(Br)C(=O)c3ccccc3C12 (stereo not drawn) | – | > 100 µM | – | > 100 µM | – | > 100 µM | – | > 100 µM | – | > 100 µM | – | > 100 µM | – | > 100 µM | – | > 100 µM | – | > 100 µM | – | – |
